Reference: patent publication US6355799B1, “Substituted benzene compounds, process for their preparation, and herbicidal and defoliant compositions containing them” (ISK Americas Incorporated, priority 1997, dated 2002)

Tests used:
Assay type in all cases: in vivo
[1] = system: field corn (Zea mays L., var. Dekalb 535, CORN); test: Pre-emerge test, crop safety; details: crop damage rating 0-100, 14 days after application
Summary of the method: (§1)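 Rating: 0–100 visual injury, 14 DAA. Application: acetone, 187 l/ha, 15–1000 g ai/ha, flat-fan track sprayer with nozzle 40–45 cm above soil or canopy. Post-emerge runs used 0.25% v/v surfactant on 2–3 leaf plants.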

[2] = system: upland rice (Oryza sp., var. Tebonnet, RICE); test: Pre-emerge test, crop safety; details: crop damage rating 0-100, 14 days after application
Summary of the method: as §1

[3] = system: velvetleaf (Abutilon theophrasti, ABUTH); test: Pre-emerge test, greenhouse herbicide activity screening; details: phytotoxicity rating 0-100, 14 days after application
Summary of the method: (§2)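 Compounds in acetone were track-sprayed at 15–1000 g ai/ha: pre-emergence onto soil sown the previous day, then top-watered to incorporate and later bottom-watered; post-emergence onto 2–3 leaf plants with 0.25% v/v surfactant, bottom-watered only. Ratings on a 0–100 phytotoxicity scale were taken at day 14.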

[4] = system: lambsquarters (Chenopodium album, CHEAL); test: as above; details: phytotoxicity rating 0-100, 14 days after application
Summary of the method: as §2

[5] = system: barnyardgrass (Echinochloa crus-galli, ECHCG); test: as above; details: phytotoxicity rating 0-100, 14 days after application
Summary of the method: as §2

[6] = system: ivyleaf morningglory (Ipomoea hederacea, IPOHE); test: as above; details: phytotoxicity rating 0-100, 14 days after application
Summary of the method: as §2

[7] = system: green foxtail (Setaria viridis, SETVI); test: as above; details: phytotoxicity rating 0-100, 14 days after application
Summary of the method: as §2

[8] = system: sicklepod (Cassia obtusifolia, CASOB); test: as above; details: phytotoxicity rating 0-100, 14 days after application
Summary of the method: as §2

[9] = system: large crabgrass (Digitaria sanguinalis, DIGSA); test: as above; details: phytotoxicity rating 0-100, 14 days after application
Summary of the method: as §2

[10] = system: field corn (Zea mays L., var. Dekalb 535, CORN); test: Post-emerge test, crop safety; details: post-emerge, 14 days after application, rating scale 0-100
Summary of the method: as §1

[11] = system: upland rice (Oryza sp., var. Tebonnet, RICE); test: Post-emerge test, crop safety; details: post-emerge, 14 days after application, rating scale 0-100
Summary of the method: as §1

[12] = system: redroot pigweed (Amaranthus retroflexus, AMARE); test: Pre-emerge test, greenhouse herbicide activity screening; details: phytotoxicity rating 0-100, 14 days after application
Summary of the method: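 Plants grown in 10 cm pots of sandy loam mix received acetone-dissolved compounds through a moving flat-fan nozzle. Doses ranged from 15 to 1000 g ai/ha. Pre-emerge pots were seeded one day earlier, post-emerge pots 8–21 days earlier. Fourteen days on, each pot was graded 0–100 for damage.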

[13] = system: velvetleaf (Abutilon theophrasti, ABUTH); test: Post-emerge test, greenhouse herbicide activity screening; details: post-emerge, 14 days after application, rating scale 0-100
Summary of the method: (§3)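 Compounds in acetone were track-sprayed at 15-1000 g ai/ha (187 l/ha) on sandy loam pots: pre-emerge one day after seeding, post-emerge at 2-3 leaf stage with 0.25% v/v non-ionic surfactant. Phytotoxicity was rated 14 days later on a 0 (no damage) to 100 (complete death) scale.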

[14] = system: redroot pigweed (Amaranthus retroflexus, AMARE); test: as above; details: post-emerge, 14 days after application
Summary of the method: as §3

[15] = system: lambsquarters (Chenopodium album, CHEAL); test: as above; details: post-emerge, 14 days after application, rating scale 0-100
Summary of the method: as §3

[16] = system: barnyardgrass (Echinochloa crus-galli, ECHCG); test: as above; details: post-emerge, 14 days after application, rating scale 0-100
Summary of the method: as §3

[17] = system: ivyleaf morningglory (Ipomoea hederacea, IPOHE); test: as above; details: post-emerge, 14 days after application, rating scale 0-100
Summary of the method: as §3

[18] = system: green foxtail (Setaria viridis, SETVI); test: as above; details: post-emerge, 14 days after application, rating scale 0-100
Summary of the method: as §3

[19] = system: johnsongrass (Sorghum halepense, SORHA); test: as above; details: post-emerge, 14 days after application, rating scale 0-100
Summary of the method: as §3

[20] = system: sicklepod (Cassia obtusifolia, CASOB); test: as above; details: post-emerge, 14 days after application, rating scale 0-100
Summary of the method: as §3

[21] = system: large crabgrass (Digitaria sanguinalis, DIGSA); test: as above; details: post-emerge, 14 days after application, rating scale 0-100
Summary of the method: as §3

COc1c(Cl)cc(F)c(-n2c(=O)cc(C(F)(F)F)n(C)c2=O)c1NC(=O)OCc1cc(C)cc(C)c1 [4-37]
Pre-emerge Herbicidal Activity CORN ([1]; 63 g ai/ha): 0 | Pre-emerge Herbicidal Activity CORN ([1]; 250 g ai/ha): 0 | Pre-emerge Herbicidal Activity RICE ([2]; 63 g ai/ha): 10 | Pre-emerge Herbicidal Activity RICE ([2]; 250 g ai/ha): 30 | Pre-emerge Herbicidal Activity ABUTH ([3]; 63 g ai/ha): 100 | Pre-emerge Herbicidal Activity ABUTH ([3]; 250 g ai/ha): 90 | Pre-emerge Herbicidal Activity CHEAL ([4]; 63 g ai/ha): 100 | Pre-emerge Herbicidal Activity CHEAL ([4]; 250 g ai/ha): 100 | Pre-emerge Herbicidal Activity ECHCG ([5]; 63 g ai/ha): 10 | Pre-emerge Herbicidal Activity ECHCG ([5]; 250 g ai/ha): 60 | Pre-emerge Herbicidal Activity IPOHE ([6]; 63 g ai/ha): 30 | Pre-emerge Herbicidal Activity IPOHE ([6]; 250 g ai/ha): 50 | Pre-emerge Herbicidal Activity SETVI ([7]; 63 g ai/ha): 90 | Pre-emerge Herbicidal Activity SETVI ([7]; 250 g ai/ha): 100 | Pre-emerge Herbicidal Activity CASOB ([8]; 63 g ai/ha): 30 | Pre-emerge Herbicidal Activity CASOB ([8]; 250 g ai/ha): 40 | Pre-emerge Herbicidal Activity DIGSA ([9]; 63 g ai/ha): 60 | Pre-emerge Herbicidal Activity DIGSA ([9]; 250 g ai/ha): 90 | phytotoxicity rating CORN (crop damage) ([10]; 63 g ai/ha): 20 | phytotoxicity rating CORN (crop damage) ([10]; 250 g ai/ha): 60 | phytotoxicity rating RICE (crop damage) ([11]; 63 g ai/ha): 10 | phytotoxicity rating RICE (crop damage) ([11]; 250 g ai/ha): 60 | Pre-emerge Herbicidal Activity AMARE ([12]; 63 g ai/ha): 100 | Pre-emerge Herbicidal Activity AMARE ([12]; 250 g ai/ha): 100 | phytotoxicity rating ABUTH ([13]; 63 g ai/ha): 100 | phytotoxicity rating ABUTH ([13]; 250 g ai/ha): 100 | phytotoxicity rating AMARE ([14]; 63 g ai/ha, rating scale 0-100 (0 no damage, 100 complete death)): 100 | phytotoxicity rating AMARE ([14]; 250 g ai/ha, rating scale 0-100): 100 | phytotoxicity rating CHEAL ([15]; 63 g ai/ha): 100 | phytotoxicity rating CHEAL ([15]; 250 g ai/ha): 100 | phytotoxicity rating ECHCG ([16]; 63 g ai/ha): 20 | phytotoxicity rating ECHCG ([16]; 250 g ai/ha): 60 | phytotoxicity rating IPOHE ([17]; 63 g ai/ha): 100 | phytotoxicity rating IPOHE ([17]; 250 g ai/ha): 100 | phytotoxicity rating SETVI ([18]; 63 g ai/ha): 90 | phytotoxicity rating SETVI ([18]; 250 g ai/ha): 90 | phytotoxicity rating SORHA ([19]; 63 g ai/ha): 40 | phytotoxicity rating SORHA ([19]; 250 g ai/ha): 60 | phytotoxicity rating CASOB ([20]; 63 g ai/ha): 90 | phytotoxicity rating CASOB ([20]; 250 g ai/ha): 100 | phytotoxicity rating DIGSA ([21]; 63 g ai/ha): 50 | phytotoxicity rating DIGSA ([21]; 250 g ai/ha): 70
